Patent US6793943B2, “Health food products” (priority 2000, dated 2004)

Legend:
[1] = administration of three kinds of samples for 2 months to groups of 30 persons; type: in vivo; settings: numbers of the persons; administered for 2 months; group of 30 persons
Description: (a) a sample of cholic acid alone,
(b) a sample of soybean isoflavone glycoside alone, and
were each administered for 2 months to each group containing 30 persons to be tested.

[2] = preliminary administration experiment; type: in vivo; settings: several persons who ingested the substance alone

C[C@H](CCC(=O)O)[C@H]1CC[C@H]2[C@@H]3[C@H](O)C[C@@H]4C[C@H](O)CC[C@]4(C)[C@H]3C[C@H](O)[C@]12C [cholic acid]
Alcoholic beverage tasted good [1]: 8 Persons | Evacuation became easy [1]: 1 Person Persons | Feces amount increased [1]: No Person | No hangover noted [1]: 4 Persons | Significantly recovered from fatigue [1]: No Person | troubles by drinking an alcoholic beverage [2]: ameliorated
